According to PMC5290327, “SC83288 is a clinical development candidate for the treatment of severe malaria” (Nature Communications, 2017):

What was measured:
Test in all cases: KINOMEscan
Assay type in all cases: binding
Settings in all cases: read-out: Remaining enzyme activity
AKT2 = target: T1, AKT2 (Homo sapiens, UniProt P31751)
T1 construct: purchased Ambit (DiscoverX) KINOMEscan; Cerep
Method in brief: (§1)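 SC81458 was screened at a single 10 μM final concentration for its ability to compete with an immobilized, active-site directed ligand for each kinase. Kinase in the eluates was measured by quantitative PCR. Beads were blocked with biotin and SeaBlock buffer holding 1% BSA, 0.05% Tween 20 and 1 mM DTT.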

DLK = target: T2, DLK (Homo sapiens, UniProt Q12852)
T2 construct: purchased Ambit (DiscoverX) KINOMEscan; Cerep
Method in brief: as §1

STK16 = target: T3, STK16 (Homo sapiens, UniProt O75716)
T3 construct: purchased Ambit (DiscoverX) KINOMEscan; Cerep
Method in brief: as §1

CSNK2a2 = target: T4, CSNK2a2 (Homo sapiens, UniProt P19784)
T4 construct: purchased Ambit (DiscoverX) KINOMEscan; Cerep
Method in brief: as §1

PIK3C2b = target: T5, PIK3C2b (Homo sapiens, UniProt O00750)
T5 construct: purchased Ambit (DiscoverX) KINOMEscan; Cerep
Method in brief: as §1

EGFR = target: T6, EGFR (Homo sapiens, UniProt P00533)
T6 construct: purchased Ambit (DiscoverX) KINOMEscan; Cerep
Method in brief: as §1

BRSK1 = target: T7, BRSK1 (Homo sapiens, UniProt Q8TDC3)
T7 construct: purchased Ambit (DiscoverX) KINOMEscan; Cerep
Method in brief: as §1

CHEK1 = target: T8, CHEK1 (Homo sapiens, UniProt O14757)
T8 construct: purchased Ambit (DiscoverX) KINOMEscan; Cerep
Method in brief: as §1

HIPK2 = target: T9, HIPK2 (Homo sapiens, UniProt Q9H2X6)
T9 construct: purchased Ambit (DiscoverX) KINOMEscan; Cerep
Method in brief: as §1

AMPK-alpha1 = target: T10, AMPK-alpha1 (Homo sapiens, UniProt Q13131)
T10 construct: purchased Ambit (DiscoverX) KINOMEscan; Cerep
Method in brief: as §1

MEK3 = target: T11, MEK3 (Homo sapiens, UniProt P46734)
T11 construct: purchased Ambit (DiscoverX) KINOMEscan; Cerep
Method in brief: as §1

WEE1 = target: T12, WEE1 (Homo sapiens, UniProt P30291)
T12 construct: purchased Ambit (DiscoverX) KINOMEscan; Cerep
Method in brief: as §1

ERK3 = target: T13, ERK3 (Homo sapiens, UniProt Q16659)
T13 construct: purchased Ambit (DiscoverX) KINOMEscan; Cerep
Method in brief: as §1

PIK3CA(Q546K) = target: T14, PIK3CA(Q546K) (Homo sapiens, UniProt P42336, Q546K)
T14 construct: purchased Ambit (DiscoverX) KINOMEscan; Cerep
Method in brief: as §1

MYLK2 = target: T15, MYLK2 (Homo sapiens, UniProt Q9H1R3)
T15 construct: purchased Ambit (DiscoverX) KINOMEscan; Cerep
Method in brief: as §1

PIK3Cb = target: T16, PIK3Cb (Homo sapiens, UniProt P42338)
T16 construct: purchased Ambit (DiscoverX) KINOMEscan; Cerep
Method in brief: as §1

DDR1 = target: T17, DDR1 (Homo sapiens, UniProt Q08345)
T17 construct: purchased Ambit (DiscoverX) KINOMEscan; Cerep
Method in brief: as §1

PCTK2 = target: T18, PCTK2 (Homo sapiens, UniProt Q00537)
T18 construct: purchased Ambit (DiscoverX) KINOMEscan; Cerep
Method in brief: as §1

TNNI3K = target: T19, TNNI3K (Homo sapiens, UniProt Q59H18)
T19 construct: purchased Ambit (DiscoverX) KINOMEscan; Cerep
Method in brief: as §1

SRC = target: T20, SRC (Homo sapiens, UniProt P12931)
T20 construct: purchased Ambit (DiscoverX) KINOMEscan; Cerep
Method in brief: as §1

LIMK2 = target: T21, LIMK2 (Homo sapiens, UniProt P53671)
T21 construct: purchased Ambit (DiscoverX) KINOMEscan; Cerep
Method in brief: as §1

DYRK1b = target: T22, DYRK1b (Homo sapiens, UniProt Q9Y463)
T22 construct: purchased Ambit (DiscoverX) KINOMEscan; Cerep
Method in brief: as §1

TNK1 = target: T23, TNK1 (Homo sapiens, UniProt Q13470)
T23 construct: purchased Ambit (DiscoverX) KINOMEscan; Cerep
Method in brief: as §1

CDK8 = target: T24, CDK8 (Homo sapiens, UniProt P49336)
T24 construct: purchased Ambit (DiscoverX) KINOMEscan; Cerep
Method in brief: as §1

PDGFRb = target: T25, PDGFRb (Homo sapiens, UniProt P09619)
T25 construct: purchased Ambit (DiscoverX) KINOMEscan; Cerep
Method in brief: as §1

DYRK2 = target: T26, DYRK2 (Homo sapiens, UniProt Q92630)
T26 construct: purchased Ambit (DiscoverX) KINOMEscan; Cerep
Method in brief: as §1

ACVR1b = target: T27, ACVR1b (Homo sapiens, UniProt P36896)
T27 construct: purchased Ambit (DiscoverX) KINOMEscan; Cerep
Method in brief: as §1

MET(Y1235D) = target: T28, MET(Y1235D) (Homo sapiens, UniProt P08581, Y1235D)
T28 construct: purchased Ambit (DiscoverX) KINOMEscan; Cerep
Method in brief: as §1

PRKD1 = target: T29, PRKD1 (Homo sapiens, UniProt Q15139)
T29 construct: purchased Ambit (DiscoverX) KINOMEscan; Cerep
Method in brief: as §1

DMPK = target: T30, DMPK (Homo sapiens, UniProt Q09013)
T30 construct: purchased Ambit (DiscoverX) KINOMEscan; Cerep
Method in brief: as §1

LZK = target: T31, LZK (Homo sapiens, UniProt O43283)
T31 construct: purchased Ambit (DiscoverX) KINOMEscan; Cerep
Method in brief: as §1

BMPR1b = target: T32, BMPR1b (Homo sapiens, UniProt O00238)
T32 construct: purchased Ambit (DiscoverX) KINOMEscan; Cerep
Method in brief: as §1

FES = target: T33, FES (Homo sapiens, UniProt P07332)
T33 construct: purchased Ambit (DiscoverX) KINOMEscan; Cerep
Method in brief: as §1

AKT3 = target: T34, AKT3 (Homo sapiens, UniProt Q9Y243)
T34 construct: purchased Ambit (DiscoverX) KINOMEscan; Cerep
Method in brief: as §1

T7 sequence (Q8TDC3 whole entry): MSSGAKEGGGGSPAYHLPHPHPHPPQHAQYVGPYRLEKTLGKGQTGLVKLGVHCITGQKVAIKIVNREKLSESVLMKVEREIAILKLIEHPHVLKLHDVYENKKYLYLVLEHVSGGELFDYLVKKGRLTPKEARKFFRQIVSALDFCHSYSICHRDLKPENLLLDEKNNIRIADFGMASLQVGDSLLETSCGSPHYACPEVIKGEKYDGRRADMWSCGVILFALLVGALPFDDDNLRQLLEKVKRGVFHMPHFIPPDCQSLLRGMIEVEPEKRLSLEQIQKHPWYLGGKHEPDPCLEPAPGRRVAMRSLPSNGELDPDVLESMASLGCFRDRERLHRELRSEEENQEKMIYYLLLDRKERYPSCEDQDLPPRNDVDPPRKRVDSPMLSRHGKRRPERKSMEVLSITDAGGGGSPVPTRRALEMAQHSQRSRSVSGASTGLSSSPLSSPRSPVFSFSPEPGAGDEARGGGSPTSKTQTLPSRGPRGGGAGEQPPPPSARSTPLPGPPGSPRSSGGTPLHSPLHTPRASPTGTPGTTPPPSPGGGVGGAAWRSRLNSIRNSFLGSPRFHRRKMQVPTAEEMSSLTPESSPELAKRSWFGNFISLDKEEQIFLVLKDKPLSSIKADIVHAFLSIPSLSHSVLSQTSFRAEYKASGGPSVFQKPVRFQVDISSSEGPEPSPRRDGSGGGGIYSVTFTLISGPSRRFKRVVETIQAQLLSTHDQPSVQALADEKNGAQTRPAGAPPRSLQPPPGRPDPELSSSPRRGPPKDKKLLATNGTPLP
T33 sequence (P07332 whole entry): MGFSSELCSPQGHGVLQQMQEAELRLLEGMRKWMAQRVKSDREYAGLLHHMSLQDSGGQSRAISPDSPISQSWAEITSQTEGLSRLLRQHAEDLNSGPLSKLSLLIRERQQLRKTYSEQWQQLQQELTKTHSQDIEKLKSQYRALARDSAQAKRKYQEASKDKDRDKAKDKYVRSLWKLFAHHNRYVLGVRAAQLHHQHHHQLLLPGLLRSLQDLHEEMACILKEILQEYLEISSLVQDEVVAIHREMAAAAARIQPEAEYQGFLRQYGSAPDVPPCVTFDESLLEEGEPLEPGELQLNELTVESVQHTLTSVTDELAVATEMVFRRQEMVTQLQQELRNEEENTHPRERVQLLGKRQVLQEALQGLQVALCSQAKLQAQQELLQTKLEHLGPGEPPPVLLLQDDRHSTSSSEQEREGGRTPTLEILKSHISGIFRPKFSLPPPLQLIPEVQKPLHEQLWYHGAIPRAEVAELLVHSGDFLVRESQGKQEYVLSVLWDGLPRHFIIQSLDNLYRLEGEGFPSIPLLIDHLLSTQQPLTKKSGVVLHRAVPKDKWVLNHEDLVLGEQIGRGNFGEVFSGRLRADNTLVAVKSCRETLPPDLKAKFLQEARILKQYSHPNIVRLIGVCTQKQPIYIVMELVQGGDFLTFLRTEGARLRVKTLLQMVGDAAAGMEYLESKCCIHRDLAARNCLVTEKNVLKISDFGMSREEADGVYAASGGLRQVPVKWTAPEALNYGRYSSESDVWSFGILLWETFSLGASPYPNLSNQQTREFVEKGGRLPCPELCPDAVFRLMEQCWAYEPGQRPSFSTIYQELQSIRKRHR
T5 sequence (O00750 whole entry): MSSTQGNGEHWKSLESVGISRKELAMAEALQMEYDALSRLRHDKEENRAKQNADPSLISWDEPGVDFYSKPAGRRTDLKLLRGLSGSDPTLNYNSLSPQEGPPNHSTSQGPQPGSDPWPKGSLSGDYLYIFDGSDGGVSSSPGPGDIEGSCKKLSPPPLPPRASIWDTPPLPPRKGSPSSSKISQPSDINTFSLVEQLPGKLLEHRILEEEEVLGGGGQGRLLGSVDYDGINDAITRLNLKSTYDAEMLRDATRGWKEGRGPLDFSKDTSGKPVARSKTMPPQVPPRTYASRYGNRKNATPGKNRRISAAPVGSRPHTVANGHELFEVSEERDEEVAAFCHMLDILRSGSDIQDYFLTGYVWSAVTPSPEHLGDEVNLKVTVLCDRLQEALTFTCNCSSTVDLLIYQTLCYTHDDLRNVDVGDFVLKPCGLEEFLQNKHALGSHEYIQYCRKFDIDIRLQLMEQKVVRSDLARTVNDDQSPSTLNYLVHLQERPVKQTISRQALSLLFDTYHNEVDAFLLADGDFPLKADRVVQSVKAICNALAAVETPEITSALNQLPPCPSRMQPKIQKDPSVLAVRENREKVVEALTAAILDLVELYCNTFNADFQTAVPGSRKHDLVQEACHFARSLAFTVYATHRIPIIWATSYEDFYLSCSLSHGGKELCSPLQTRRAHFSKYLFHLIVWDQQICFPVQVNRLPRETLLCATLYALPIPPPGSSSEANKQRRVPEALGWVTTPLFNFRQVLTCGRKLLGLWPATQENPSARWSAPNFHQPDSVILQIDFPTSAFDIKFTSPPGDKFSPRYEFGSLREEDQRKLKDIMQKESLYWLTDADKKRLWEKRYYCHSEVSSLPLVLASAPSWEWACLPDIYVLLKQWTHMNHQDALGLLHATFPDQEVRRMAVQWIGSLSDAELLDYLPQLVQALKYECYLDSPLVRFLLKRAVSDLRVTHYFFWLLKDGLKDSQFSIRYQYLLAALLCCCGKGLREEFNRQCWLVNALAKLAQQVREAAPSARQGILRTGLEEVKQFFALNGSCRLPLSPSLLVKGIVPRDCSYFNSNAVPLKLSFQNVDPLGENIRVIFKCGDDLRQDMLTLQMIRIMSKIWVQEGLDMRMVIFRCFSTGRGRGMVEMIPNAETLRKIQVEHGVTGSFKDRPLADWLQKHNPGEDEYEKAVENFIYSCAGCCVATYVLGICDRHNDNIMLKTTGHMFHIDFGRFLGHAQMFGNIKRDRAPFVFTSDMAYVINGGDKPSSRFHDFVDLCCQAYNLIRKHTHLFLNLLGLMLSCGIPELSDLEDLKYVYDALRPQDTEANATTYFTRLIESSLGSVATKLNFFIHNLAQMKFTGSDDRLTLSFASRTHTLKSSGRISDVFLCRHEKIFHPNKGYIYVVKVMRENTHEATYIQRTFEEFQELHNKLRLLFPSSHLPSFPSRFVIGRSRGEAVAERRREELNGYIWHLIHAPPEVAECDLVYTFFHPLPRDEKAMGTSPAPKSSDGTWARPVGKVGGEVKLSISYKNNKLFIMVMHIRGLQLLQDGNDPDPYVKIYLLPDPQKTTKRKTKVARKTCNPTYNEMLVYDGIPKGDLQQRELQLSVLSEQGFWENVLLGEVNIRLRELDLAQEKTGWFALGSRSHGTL
T18 sequence (Q00537 whole entry): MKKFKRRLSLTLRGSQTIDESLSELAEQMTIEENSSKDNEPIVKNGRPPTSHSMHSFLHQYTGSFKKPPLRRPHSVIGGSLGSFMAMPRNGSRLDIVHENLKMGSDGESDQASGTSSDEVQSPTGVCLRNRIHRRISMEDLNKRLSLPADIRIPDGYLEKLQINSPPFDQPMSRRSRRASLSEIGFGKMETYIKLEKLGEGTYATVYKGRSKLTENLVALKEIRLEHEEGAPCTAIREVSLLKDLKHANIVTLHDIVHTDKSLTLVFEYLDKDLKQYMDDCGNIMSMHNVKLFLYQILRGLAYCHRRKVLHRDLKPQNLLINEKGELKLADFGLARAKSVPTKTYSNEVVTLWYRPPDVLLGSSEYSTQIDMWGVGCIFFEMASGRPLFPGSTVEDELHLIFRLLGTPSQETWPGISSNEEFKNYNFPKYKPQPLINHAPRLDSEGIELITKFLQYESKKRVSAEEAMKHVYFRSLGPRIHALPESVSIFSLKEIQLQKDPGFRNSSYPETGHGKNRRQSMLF
T17 sequence (Q08345 19-913): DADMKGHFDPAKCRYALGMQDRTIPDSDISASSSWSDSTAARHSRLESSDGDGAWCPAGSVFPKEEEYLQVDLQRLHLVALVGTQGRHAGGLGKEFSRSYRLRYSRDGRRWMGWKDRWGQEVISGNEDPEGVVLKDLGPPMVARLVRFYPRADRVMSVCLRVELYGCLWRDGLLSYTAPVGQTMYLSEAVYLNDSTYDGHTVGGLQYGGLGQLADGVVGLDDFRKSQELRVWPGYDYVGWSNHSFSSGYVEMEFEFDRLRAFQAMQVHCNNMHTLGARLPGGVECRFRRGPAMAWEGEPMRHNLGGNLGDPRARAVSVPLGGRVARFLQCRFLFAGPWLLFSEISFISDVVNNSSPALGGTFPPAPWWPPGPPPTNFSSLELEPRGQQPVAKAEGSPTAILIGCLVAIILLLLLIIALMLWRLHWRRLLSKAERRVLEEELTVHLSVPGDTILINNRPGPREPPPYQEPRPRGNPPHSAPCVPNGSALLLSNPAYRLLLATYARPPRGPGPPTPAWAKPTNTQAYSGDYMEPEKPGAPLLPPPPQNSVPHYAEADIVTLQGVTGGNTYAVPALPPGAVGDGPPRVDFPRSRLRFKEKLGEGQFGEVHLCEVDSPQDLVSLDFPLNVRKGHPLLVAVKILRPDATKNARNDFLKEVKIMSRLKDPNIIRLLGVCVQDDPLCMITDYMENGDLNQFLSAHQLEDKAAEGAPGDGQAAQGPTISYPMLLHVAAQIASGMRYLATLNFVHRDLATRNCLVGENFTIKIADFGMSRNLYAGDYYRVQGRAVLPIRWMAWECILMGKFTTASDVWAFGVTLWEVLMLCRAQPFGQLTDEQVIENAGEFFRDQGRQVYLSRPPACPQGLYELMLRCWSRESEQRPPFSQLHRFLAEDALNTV
T4 sequence (P19784 whole entry): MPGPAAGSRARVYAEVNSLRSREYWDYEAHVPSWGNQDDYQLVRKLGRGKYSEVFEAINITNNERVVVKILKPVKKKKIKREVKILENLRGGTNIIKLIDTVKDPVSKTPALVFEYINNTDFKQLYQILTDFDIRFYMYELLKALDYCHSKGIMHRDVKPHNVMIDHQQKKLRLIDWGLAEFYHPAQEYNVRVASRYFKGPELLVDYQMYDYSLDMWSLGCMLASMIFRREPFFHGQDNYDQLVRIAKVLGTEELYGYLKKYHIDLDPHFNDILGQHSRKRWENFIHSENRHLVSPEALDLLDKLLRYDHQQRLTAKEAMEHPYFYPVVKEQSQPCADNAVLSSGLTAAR

`CCCCN1CCN(C(=N)c2cccc(NC(=O)Nc3ccc(S(=O)(=O)NCc4ccc(S(N)(=O)=O)cc4)cc3)c2)CC1` [SC81458, 4-(3-(3-((4-butylpiperazin-1-yl)(imino)methyl)phenyl)ureido)-N-(4-sulfamoylbenzyl) benzenesulfonamide] showed a remaining binding at 10 µM (AKT2) of 84%, a remaining binding at 10 µM (DLK) of 100% and a remaining binding at 10 µM (STK16) of 100%. For the same compound, the remaining binding at 10 µM (CSNK2a2) was 78%, the remaining binding at 10 µM (PIK3C2b) was 98% and the remaining binding at 10 µM (EGFR) was 100%. For the same compound, the remaining binding at 10 µM (BRSK1) was 69%, the remaining binding at 10 µM (CHEK1) was 98% and the remaining binding at 10 µM (HIPK2) was 100%. The remaining binding at 10 µM (AMPK-alpha1) was 100%, the remaining binding at 10 µM (MEK3) was 100% and the remaining binding at 10 µM (WEE1) was 100%. For the same compound, the remaining binding at 10 µM (ERK3) was 100%, the remaining binding at 10 µM (PIK3CA(Q546K)) was 100% and the remaining binding at 10 µM (MYLK2) was 100%. For the same compound, the remaining binding at 10 µM (PIK3Cb) was 70%, the remaining binding at 10 µM (DDR1) was 91% and the remaining binding at 10 µM (PCTK2) was 97%. It also gave a remaining binding at 10 µM (TNNI3K) of 100%, a remaining binding at 10 µM (SRC) of 81% and a remaining binding at 10 µM (LIMK2) of 100%. For the same compound, the remaining binding at 10 µM (DYRK1b) was 87%, the remaining binding at 10 µM (TNK1) was 70% and the remaining binding at 10 µM (CDK8) was 100%. For the same compound, the remaining binding at 10 µM (PDGFRb) was 61%, the remaining binding at 10 µM (DYRK2) was 100% and the remaining binding at 10 µM (ACVR1b) was 100%. The remaining binding at 10 µM (MET(Y1235D)) was 100%, the remaining binding at 10 µM (PRKD1) was 65% and the remaining binding at 10 µM (DMPK) was 76%. For the same compound, the remaining binding at 10 µM (LZK) was 100%, the remaining binding at 10 µM (BMPR1b) was 85% and the remaining binding at 10 µM (FES) was 100%. The remaining binding at 10 µM (AKT3) was 66%.
